From patent US9902696B2, “1,4-substituted piperidine derivatives” (Cephalon, Inc., priority 2015, dated 2018)
Where a name gives a salt, the structure may show the parent alone.

The compounds below were run against T1, recombinant human baculovirus-expressed GST-tagged FASN (Homo sapiens, UniProt P49327) (assay: FASN enzyme activity assay, fluorescence-based detection of CoA with CPM). Conditions: 5 nM FASN, 150 μM NADPH, 10 μM acetyl-CoA, 25 μM malonyl-CoA, 90 minutes incubation; read-out: IC50 data for Compounds of Formulae I-V/V(a): Activity.
T1 construct: GST
T1 sequence (P49327 whole entry): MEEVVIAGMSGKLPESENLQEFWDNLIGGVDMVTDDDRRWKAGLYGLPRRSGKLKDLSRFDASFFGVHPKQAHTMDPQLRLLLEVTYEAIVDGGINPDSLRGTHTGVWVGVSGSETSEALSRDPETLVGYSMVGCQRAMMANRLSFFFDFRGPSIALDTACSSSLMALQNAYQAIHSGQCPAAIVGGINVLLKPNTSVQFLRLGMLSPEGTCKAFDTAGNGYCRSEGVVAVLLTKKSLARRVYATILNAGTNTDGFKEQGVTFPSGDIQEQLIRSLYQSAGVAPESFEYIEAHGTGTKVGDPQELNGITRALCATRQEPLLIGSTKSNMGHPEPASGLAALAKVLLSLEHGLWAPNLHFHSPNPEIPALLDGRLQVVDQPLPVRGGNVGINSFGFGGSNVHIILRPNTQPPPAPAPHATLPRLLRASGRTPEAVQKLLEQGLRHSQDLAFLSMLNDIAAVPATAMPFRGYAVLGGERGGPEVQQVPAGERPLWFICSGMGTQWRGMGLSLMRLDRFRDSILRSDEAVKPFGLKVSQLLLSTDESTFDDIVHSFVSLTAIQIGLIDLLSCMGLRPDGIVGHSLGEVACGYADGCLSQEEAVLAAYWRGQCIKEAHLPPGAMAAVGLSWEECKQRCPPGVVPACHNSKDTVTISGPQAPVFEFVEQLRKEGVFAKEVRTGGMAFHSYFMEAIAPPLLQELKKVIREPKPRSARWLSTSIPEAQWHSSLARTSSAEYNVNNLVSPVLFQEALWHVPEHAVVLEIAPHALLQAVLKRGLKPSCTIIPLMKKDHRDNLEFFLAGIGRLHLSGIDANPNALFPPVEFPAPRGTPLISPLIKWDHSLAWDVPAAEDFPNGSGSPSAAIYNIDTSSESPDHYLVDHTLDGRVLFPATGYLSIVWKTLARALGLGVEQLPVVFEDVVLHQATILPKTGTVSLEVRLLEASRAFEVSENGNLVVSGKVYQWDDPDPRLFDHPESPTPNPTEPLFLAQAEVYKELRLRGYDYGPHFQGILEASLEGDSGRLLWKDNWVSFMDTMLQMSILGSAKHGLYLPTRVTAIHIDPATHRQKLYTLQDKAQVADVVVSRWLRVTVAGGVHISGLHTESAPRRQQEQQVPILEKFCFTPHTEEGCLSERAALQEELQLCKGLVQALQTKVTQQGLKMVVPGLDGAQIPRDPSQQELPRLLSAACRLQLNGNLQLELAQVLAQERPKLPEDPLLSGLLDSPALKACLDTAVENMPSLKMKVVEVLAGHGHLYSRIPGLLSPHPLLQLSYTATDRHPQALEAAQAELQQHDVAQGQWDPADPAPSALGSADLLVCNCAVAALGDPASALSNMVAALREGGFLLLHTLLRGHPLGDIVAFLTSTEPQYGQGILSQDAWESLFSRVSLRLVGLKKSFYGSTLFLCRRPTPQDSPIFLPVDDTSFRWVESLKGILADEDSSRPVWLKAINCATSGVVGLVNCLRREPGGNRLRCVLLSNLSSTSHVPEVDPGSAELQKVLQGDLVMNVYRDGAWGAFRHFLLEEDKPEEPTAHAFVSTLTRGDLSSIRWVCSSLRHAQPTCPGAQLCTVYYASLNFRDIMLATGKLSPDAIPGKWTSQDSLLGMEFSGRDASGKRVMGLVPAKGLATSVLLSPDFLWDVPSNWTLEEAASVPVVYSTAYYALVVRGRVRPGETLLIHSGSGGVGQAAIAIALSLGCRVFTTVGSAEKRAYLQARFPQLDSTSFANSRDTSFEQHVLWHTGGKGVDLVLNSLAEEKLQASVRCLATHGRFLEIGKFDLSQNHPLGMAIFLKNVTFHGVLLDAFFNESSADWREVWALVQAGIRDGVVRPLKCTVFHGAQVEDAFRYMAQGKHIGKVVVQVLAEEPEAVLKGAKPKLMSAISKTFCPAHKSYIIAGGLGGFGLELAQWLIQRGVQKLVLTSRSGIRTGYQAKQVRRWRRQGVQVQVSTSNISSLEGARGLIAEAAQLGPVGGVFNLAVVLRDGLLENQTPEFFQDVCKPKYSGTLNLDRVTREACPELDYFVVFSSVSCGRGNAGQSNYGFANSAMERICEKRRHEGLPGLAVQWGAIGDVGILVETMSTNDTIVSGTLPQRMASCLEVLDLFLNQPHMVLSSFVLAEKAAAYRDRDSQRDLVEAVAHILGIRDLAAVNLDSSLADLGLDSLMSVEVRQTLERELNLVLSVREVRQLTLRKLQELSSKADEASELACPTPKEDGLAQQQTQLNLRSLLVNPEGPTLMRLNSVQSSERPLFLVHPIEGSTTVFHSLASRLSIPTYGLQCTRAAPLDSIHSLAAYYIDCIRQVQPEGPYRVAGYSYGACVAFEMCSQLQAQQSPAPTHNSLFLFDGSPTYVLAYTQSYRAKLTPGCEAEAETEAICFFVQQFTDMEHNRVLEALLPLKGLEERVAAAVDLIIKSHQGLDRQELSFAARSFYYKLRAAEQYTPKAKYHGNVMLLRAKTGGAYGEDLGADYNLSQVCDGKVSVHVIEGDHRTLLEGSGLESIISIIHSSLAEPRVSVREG
Type: biochemical
How it was run: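 Human GST-tagged FASN, baculovirus-expressed (5 nM), in 50 mM HEPES pH 7.5 with 150 μM NADPH, 10 μM acetyl-CoA, 25 μM malonyl-CoA, 0.5% DMSO; malonyl-CoA-started, 90 min. Released CoA detected with CPM (50 μM dilution), 30 min, fluorescence ex 390/em 530. IC50 from variable-slope sigmoidal fit of % inhibition versus log concentration.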

SMILES	IC50 [nM]
O=C(C1CC1)N1CCC(Oc2ccc(-c3cncc(-c4ccccc4)c3)cc2)CC1 [Example 384, Cyclopropyl-{4-[4-(5-phenyl-pyridin-3-yl)-phenoxy]-piperidin-1-yl}-methanone, TFA salt]	1000 to 10000
O=C(C1CCC1)N1CCC(Oc2ccc(-c3cncc(-c4ccccc4)c3)cc2)CC1 [Example 385, Cyclobutyl-{4-[4-(5-phenylpyridin-3-yl)-phenoxy]-piperidin-1-yl}-methanone, TFA salt]	1000 to 10000
CCC(=O)N1CCC(Oc2ccc(-c3ccc(N4CCOCC4)nc3)cc2)CC1 [Example 386, 1-{4-[4-(6-Morpholin-4-yl-pyridin-3-yl)-phenoxy]-piperidin-1-yl}-propan-1-one]	1000 to 10000
O=C(C1CC1)N1CCC(Oc2ccc(-c3ccc(N4CCOCC4)nc3)cc2)CC1 [Example 387, Cyclopropyl-{4-[4-(6-morpholin-4-yl-pyridin-3-yl)-phenoxy]-piperidin-1-yl}-methanone]	1000 to 10000
O=C(C1CCC1)N1CCC(Oc2ccc(-c3ccc(N4CCOCC4)nc3)cc2)CC1 [Example 388, Cyclobutyl-{4-[4-(6-morpholin-4-yl-pyridin-3-yl)-phenoxy]-piperidin-1-yl}-methanone]	1000 to 10000
O=C(C1CC1)N1CCC(Oc2ccc(-c3ccc(Oc4ccccc4)nc3)cc2)CC1 [Example 390, Cyclopropyl-{4-[4-(6-phenoxy-pyridin-3-yl)-phenoxy]-piperidin-1-yl}-methanone]	1000 to 10000
O=C(C1CCC1)N1CCC(Oc2ccc(-c3ccc(Oc4ccccc4)nc3)cc2)CC1 [Example 391, Cyclobutyl-{4-[4-(6-phenoxy-pyridin-3-yl)-phenoxy]-piperidin-1-yl}-methanone]	1000 to 10000
O=C(C1CCC1)N1CCC(Oc2ccc(-c3ccc(Nc4ccccc4)nc3)cc2)CC1 [Example 394, Cyclobutyl-{4-[4-(6-phenylaminopyridin-3-yl)-phenoxy]-piperidin-1-yl}-methanone, TFA salt]	1000 to 10000
O=C(C1CC1)N1CCC(Oc2ccc(-c3cncc(Oc4ccccc4)c3)cc2)CC1 [Example 399, Cyclopropyl-{4-[4-(5-phenoxy-pyridin-3-yl)-phenoxy]-piperidin-1-yl}-methanone, HCl]	1000 to 10000
O=C(C1CCC1)N1CCC(Oc2ccc(-c3cncc(Oc4ccccc4)c3)cc2)CC1 [Example 400, Cyclobutyl-{4-[4-(5-phenoxypyridin-3-yl)-phenoxy]-piperidin-1-yl}-methanone, HCl]	1000 to 10000
COc1cc(-c2ccc(OC3CCN(C(=O)C4CC4)CC3)cc2)cn2nccc12 [Example 411, Cyclopropyl-{4-[4-(4-methoxypyrazolo[1,5-a]pyridin-6-yl)-phenoxy]-piperidin-1-yl}-methanone, HCl]	100 to 999
COc1cc(-c2ccc(OC3CCN(C(=O)C4CCC4)CC3)cc2)cn2nccc12 [Example 412, Cyclobutyl-{4-[4-(4-methoxypyrazolo[1,5-a]pyridin-6-yl)-phenoxy]-piperidin-1-yl}-methanone, HCl]	1 to 99
O=C(C1CC1)N1CCC(Oc2ccc(-c3ccc4cnc(Cl)cc4c3)cc2)CC1 [Example 414, {4-[4-(3-Chloroisoquinolin-6-yl)-phenoxy]-piperidin-1-yl}-cyclopropyl-methanone]	1000 to 10000

Second part, the compound after the results:

IC50 [nM]	SMILES
1000 to 10000	CCC(=O)N1CCC(Oc2ccc(-c3ccc(Oc4ccccc4)nc3)cc2)CC1 [Example 389, 1-{4-[4-(6-Phenoxy-pyridin-3-yl)-phenoxy]-piperidin-1-yl}-propan-1-one]
1000 to 10000	O=C(C1CC1)N1CCC(Oc2ccc(-c3ccc(Nc4ccccc4)nc3)cc2)CC1 [Example 393, Cyclopropyl-{4-[4-(6-phenylaminopyridin-3-yl)-phenoxy]-piperidin-1-yl}-methanone, TFA salt]
1000 to 10000	CCC(=O)N1CCC(Oc2ccc(-c3cccc(-c4ccccn4)c3F)cc2)CC1 [Example 395, 1-[4-(2′-Fluoro-3′-pyridin-2-yl-biphenyl-4-yloxy)-piperidin-1-yl]-propan-1-one]
1000 to 10000	O=C(C1CC1)N1CCC(Oc2ccc(-c3cccc(-c4ccccn4)c3F)cc2)CC1 [Example 396, Cyclopropyl-[4-(2′-fluoro-3′-pyridin-2-yl-biphenyl-4-yloxy)-piperidin-1-yl]-methanone]
1000 to 10000	CCC(=O)N1CCC(Oc2ccc(-c3cncc(Oc4ccccc4)c3)cc2)CC1 [Example 397, 1-{4-[4-(5-Phenoxypyridin-3-yl)-phenoxy]-piperidin-1-yl}-propan-1-one, TFA]
1000 to 10000	O=C(C1CCC1)N1CCC(Oc2ccc(-c3cccc(-c4ccccn4)c3F)cc2)CC1 [Example 398, Cyclobutyl-[4-(2′-fluoro-3′-pyridin-2-yl-biphenyl-4-yloxy)-piperidin-1-yl]-methanone HCl]
1000 to 10000	CCC(=O)N1CCC(Oc2ccc(-c3cncc(Nc4ccccc4)c3)cc2)CC1 [Example 401, 1-{4-[4-(5-Phenylaminopyridin-3-yl)-phenoxy]-piperidin-1-yl}-propan-1-one, TFA salt]
1000 to 10000	CCC(=O)N1CCC(Oc2ccc(-c3ccnc(-c4ccccc4)c3)cc2)CC1 [Example 402, 1-{4-[4-(2-Phenylpyridin-4-yl)-phenoxy]-piperidin-1-yl}-propan-1-one, TFA]
1000 to 10000	O=C(C1CC1)N1CCC(Oc2ccc(-c3ccnc(-c4ccccc4)c3)cc2)CC1 [Example 403, Cyclopropyl-{4-[4-(2-phenylpyridin-4-yl)-phenoxy]-piperidin-1-yl}-methanone, TFA salt]
1000 to 10000	CCC(=O)N1CCC(Oc2ccc(-c3ccnc(Nc4ccccc4)c3)cc2)CC1 [Example 404, 1-{4-[4-(2-Phenylaminopyridin-4-yl)-phenoxy]-piperidin-1-yl}-propan-1-one]
1000 to 10000	O=C(C1CC1)N1CCC(Oc2ccc(-c3ccnc(Nc4ccccc4)c3)cc2)CC1 [Example 405, Cyclopropyl-{4-[4-(2-phenylaminopyridin-4-yl)-phenoxy]-piperidin-1-yl}-methanone]
1000 to 10000	CCC(=O)N1CCC(Oc2ccc(-c3cccc(-c4ccccn4)c3C)cc2)CC1 [Example 406, 1-[4-(2′-Methyl-3′-pyridin-2-yl-biphenyl-4-yloxy)-piperidin-1-yl]-propan-1-one; TFA salt]
1000 to 10000	Cc1c(-c2ccc(OC3CCN(C(=O)C4CC4)CC3)cc2)cccc1-c1ccccn1 [Example 407, Cyclopropyl-[4-(2′-methyl-3′-pyridin-2-yl-biphenyl-4-yloxy)-piperidin-1-yl]-methanone, TFA salt]
1000 to 10000	Cc1c(-c2ccc(OC3CCN(C(=O)C4CCC4)CC3)cc2)cccc1-c1ccccn1 [Example 408, Cyclobutyl-[4-(2′-methyl-3′-pyridin-2-yl-biphenyl-4-yloxy)-piperidin-1-yl]-methanone, TFA salt]
1000 to 10000	CCC(=O)N1CCC(Oc2ccc(-c3ccnc(Oc4ccccc4)c3)cc2)CC1 [Example 409, 1-{4-[4-(2-Phenoxypyridin-4-yl)-phenoxy]-piperidin-1-yl}-propan-1-one]
100 to 999	CCC(=O)N1CCC(Oc2ccc(-c3cc(OC)c4ccnn4c3)cc2)CC1 [Example 410, 1-{4-[4-(4-Methoxypyrazolo[1,5-a]pyridin-6-yl)-phenoxy]-piperidin-1-yl}-propan-1-one, HCl]
1000 to 10000	CCC(=O)N1CCC(Oc2ccc(-c3ccc4cnc(Cl)cc4c3)cc2)CC1 [Example 413, 1-{4-[4-(3-Chloroisoquinolin-6-yl)-phenoxy]-piperidin-1-yl}-propan-1-one]
